The record followed here is ChEMBL document CHEMBL3882241, “Compounds inhibiting the binding of sap for treating osteoarthritis” (2006).

The target in assay [1] is Serum amyloid P-component (Homo sapiens) (UniProt P02743). Nature of the assay: Inhibition of calcium dependent [125I]serum amyloid P-component (unknown origin) binding to immobilized Neisseria meningitidis at 2 uM incubated for 2 hrs by fluorescence/electron microscopy relative to control.
For assay [2] the target is unchanged. As to the kind of experiment: Inhibition of calcium dependent [125I]serum amyloid P-component (unknown origin) binding to immobilized Neisseria meningitidis at 200 uM incubated for 2 hrs by fluorescence/electron microscopy relative to control.
The target is the same in assay [3]. Nature of the assay: Inhibition of calcium dependent [125I]serum amyloid P-component (unknown origin) binding to immobilized influenza virus A/Shanghai/24/90 at 2 mM incubated for 2 hrs by fluorescence/electron microscopy relative to control.
The target is the same in assay [4]. As to the kind of experiment: Inhibition of calcium dependent [125I]serum amyloid P-component (unknown origin) binding to immobilized influenza virus A/Shanghai/24/90 at 200 nM incubated for 2 hrs by fluorescence/electron microscopy relative to control.
Assay [5] has the same target. Nature of the assay: Inhibition of calcium dependent [125I]serum amyloid P-component (unknown origin) binding to immobilized chicken erythrocyte native long chromatin at 200 uM incubated for 2 hrs by gamma counting relative to control.
Assay [6] shares this target. As to the kind of experiment: Inhibition of calcium dependent [125I]serum amyloid P-component (unknown origin) binding to immobilized chicken erythrocyte native long chromatin at 20 uM incubated for 2 hrs by gamma counting relative to control.
For assay [7] the target is unchanged. As to the kind of experiment: Inhibition of calcium dependent [125I]serum amyloid P-component (unknown origin) binding to immobilized chicken erythrocyte native long chromatin at 2 mM incubated for 2 hrs by gamma counting relative to control.
The target is the same in assay [8]. As to the kind of experiment: Inhibition of calcium dependent [125I]serum amyloid P-component (unknown origin) binding to immobilized Neisseria meningitidis at 200 nM incubated for 2 hrs by fluorescence/electron microscopy relative to control.
The target is the same in assay [9]. As to the kind of experiment: Inhibition of calcium dependent [125I]serum amyloid P-component (unknown origin) binding to immobilized influenza virus A/Shanghai/24/90 at 20 uM incubated for 2 hrs by fluorescence/electron microscopy relative to control.
Assay [10] has the same target. Nature of the assay: Inhibition of calcium dependent [125I]serum amyloid P-component (unknown origin) binding to immobilized chicken erythrocyte native long chromatin at 200 nM incubated for 2 hrs by gamma counting relative to control.
The target is the same in assay [11]. As to the kind of experiment: Inhibition of calcium dependent [125I]serum amyloid P-component (unknown origin) binding to immobilized influenza virus A/Shanghai/24/90 at 200 uM incubated for 2 hrs by fluorescence/electron microscopy relative to control.
For assay [12] the target is unchanged. As to the kind of experiment: Inhibition of calcium dependent [125I]serum amyloid P-component (unknown origin) binding to immobilized chicken erythrocyte native long chromatin at 2 uM incubated for 2 hrs by gamma counting relative to control.
Assay [13] shares this target. Nature of the assay: Inhibition of calcium dependent [125I]serum amyloid P-component (unknown origin) binding to immobilized Neisseria meningitidis at 20 uM incubated for 2 hrs by fluorescence/electron microscopy relative to control.
For assay [14] the target is unchanged. As to the kind of experiment: Inhibition of calcium dependent [125I]serum amyloid P-component (unknown origin) binding to immobilized Neisseria meningitidis at 2 mM incubated for 2 hrs by fluorescence/electron microscopy relative to control.
Assay [15] has the same target. As to the kind of experiment: Inhibition of calcium dependent [125I]serum amyloid P-component (unknown origin) binding to immobilized influenza virus A/Shanghai/24/90 at 2 uM incubated for 2 hrs by fluorescence/electron microscopy relative to control.

Serum amyloid P-component (Homo sapiens), sequence (P02743 whole entry): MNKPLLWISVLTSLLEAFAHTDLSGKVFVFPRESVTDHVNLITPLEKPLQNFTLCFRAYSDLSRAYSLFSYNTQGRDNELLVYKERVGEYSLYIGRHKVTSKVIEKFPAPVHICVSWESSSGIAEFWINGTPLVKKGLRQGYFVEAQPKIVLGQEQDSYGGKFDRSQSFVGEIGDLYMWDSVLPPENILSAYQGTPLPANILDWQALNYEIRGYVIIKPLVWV

The term inhibition denotes the change of the read-out against control, counted positive when it falls. As for `O=C(O)[C@H]1CCCN1C(=O)COc1ccc(OCC(=O)N2CCC[C@@H]2C(=O)O)cc1`, the inhibition in assay [1] is 65%; in assay [2] it was 65%; in assay [3], 87%; in [4], 3%; in assay [5] it was 75%; in [6], 56%. Moreover, the inhibition in [7] was determined as 91%; in assay [8], 0%; in assay [9], 82%; in assay [10], 1%; in assay [11], 84%; in assay [12], 36%. For the same compound, the inhibition is 74% in [13], 100% in assay [14] and 77% in assay [15].
`O=C(O)[C@H]1CCCN1C(=O)COc1ccccc1OCC(=O)N1CCC[C@@H]1C(=O)O`: the inhibition in [1] was determined as 77%; in assay [2] it was 100%; in assay [3], 94%; in assay [4], 44%; in [5], 89%; in assay [6], 77%. Moreover, the inhibition in [7] was 96%; in assay [8], 18%; in [9] it was 88%; in [10], 7%; in assay [11], 93%; in assay [12] it was 34%. Also, the inhibition in [13] turned out to be 87%; in assay [14], 100%; in [15], 68%.
Take `O=C(O)[C@H]1CCCN1C(=O)Cc1cc(O)c(CC(=O)N2CCC[C@@H]2C(=O)O)cc1O`: the inhibition was found to be 76% in assay [1]; 100% in assay [2]; 89% in assay [3]; 24% in [4]; 88% in assay [5]; 78% in assay [6]. The inhibition in assay [7] worked out at 97%; in assay [8] it was 1%; in assay [9], 80%; in assay [10] it was 0%; in assay [11], 89%; in [12] it was 45%. Further, the inhibition in assay [13] was 95%; in [14], 100%; in assay [15], 57%.
For `O=C(O)[C@H]1CCCN1C(=O)Cc1ccc(CC(=O)N2CCC[C@@H]2C(=O)O)cc1`, the inhibition in [1] came to 64%; in assay [2] it was 100%; in assay [3] it was 89%; in assay [4], 37%; in assay [5], 66%; in assay [6] it was 39%. The inhibition in [7] was found to be 92%; in assay [8] it was 7%; in assay [9] it was 85%; in assay [10], 4%; in assay [11] it was 89%; in assay [12], 19%. The inhibition in assay [13] came out at 73%; in [14], 100%; in [15], 65%.
For `COc1cccc(OCC(=O)N2CCC[C@@H]2C(=O)O)c1OCC(=O)N1CCC[C@@H]1C(=O)O`, the inhibition is 74% in assay [1]; 93% in assay [2]; 89% in [3]; 16% in assay [4]; 96% in assay [5]; 75% in [6]. Moreover, the inhibition in assay [7] stood at 100%; in assay [8], 19%; in [9], 62%; in assay [10], 11%; in [11], 77%; in assay [13], 92%. Moreover, the figures for the inhibition in assay [14] and in assay [15] were 100% and 52%, respectively.
